From patent US8637537B2, “Serine/threonine kinase inhibitors” (Genentech, Inc., priority 2011, dated 2014)
Read-outs that look alike come from different tables or passages of the source.

Key:
[1] = target: T1, human recombinant GST-PAK1-KD protein (Homo sapiens, UniProt Q13153); test: GST-PAK1-KD (kinase domain) biochemical assay, microfluidic mobility shift
T1 construct: residues #249-545 of human PAK1, UniProtKP/Swiss Q13153; His6 (N); made in house; host or cells: Sf9 insect cells, pAcGP67 baculovirus expression vector
T1 sequence (Q13153 249-545): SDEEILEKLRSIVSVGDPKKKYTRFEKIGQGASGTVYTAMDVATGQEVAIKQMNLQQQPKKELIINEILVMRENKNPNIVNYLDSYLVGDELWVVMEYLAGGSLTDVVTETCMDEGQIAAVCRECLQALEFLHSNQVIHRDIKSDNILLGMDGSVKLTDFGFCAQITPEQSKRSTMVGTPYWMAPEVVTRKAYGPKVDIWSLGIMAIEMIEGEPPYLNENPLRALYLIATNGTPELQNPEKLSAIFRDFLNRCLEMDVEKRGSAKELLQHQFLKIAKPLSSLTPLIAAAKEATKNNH

[2] = system: group I PAKs (PAK1-3) in EBC1 cells, MEK1 phosphorylation at S298; test: Cellular PAK assay: MEK1 (S298) phosphorylation in EBC1 cells, HTRF; type: cell-based; details: Homo sapiens, EBC-1, 2 h treatment, Example 66
Description: Group I PAKs (PAK1-3) are activated upon binding to the Rho GTPases, Rac1 and Cdc42. […] The inhibition of group I PAKs in EBC1 cells is assessed by detecting changes in the level of MEK1 phosphorylation at S298 using homogenous time-resolved fluorescence (HTRF). […] Following inhibitor treatment, cells were lysed with 25 μL of 1× cellular kinase lysis buffer (Cisbio) containing 1× cellular kinase blocking reagent (Cisbio). Cellular lysis was carried out at 4° C. for 2 h with constant shaking before lysate (16 μL) was transferred to white 384-well ProxiPlates™ (Perkin Elmer).

[3] = GST-PAK1-KD Inhibition Assay - Example 65, read-out: PAK1 inhibition Ki
[4] = Table II, PAK1 Ki class, read-out: Ki
[5] = Table I, PAK1 Ki class, read-out: Ki

SMILES | Ki [1, 3] | Ki [1, 4] | IC50 [2] | Ki [1, 5] | Ki ([1]; Ki, Table I, PAK1 Ki class)
CCN(Cc1ccc2[nH]cnc2c1Cl)c1nccc(Nc2cc(C(C)C)[nH]n2)n1 [II-11, N^2-((4-Chloro-1H-benzo[d]imidazol-5-yl)methyl)-N^2-ethyl-N^4-(5-isopropyl-1H-pyrazol-3-yl)pyrimidine-2,4-diamine] | 1.6 nM | < 50 nM | 43 nM |  | 
C[C@H](Nc1nccc(Nc2cc([C@H]3CC3(F)F)[nH]n2)n1)c1ccc2[nH]cnc2c1 [I-62, N^2—((S)-1-(1H-benzo[d]imidazol-5-yl)ethyl)-N^4-(5-((R)-2,2-difluorocyclopropyl)-1H-pyrazol-3-yl)pyrimidine-2,4-diamine] | 5.13 nM |  | 244 nM | < 50 nM | 
C[C@H](Nc1nccc(Nc2cc(C3CC3)[nH]n2)n1)c1ccc2[nH]ccc2c1 [I-8, (S)—N^2-(1-(1H-indol-5-yl)ethyl)-N^4-(5-cyclopropyl-1H-pyrazol-3-yl)pyrimidine-2,4-diamine] | 15.1 nM |  | 133 nM |  | < 50 nM
FC(F)(F)c1cc(Nc2cc(C3CC3)[nH]n2)nc(NCc2ccc3[nH]cnc3c2)n1 [I-11, N^2-((1H-benzo[d]imidazol-5-yl)methyl)-N^4-(5-cyclopropyl-1H-pyrazol-3-yl)-6-(trifluoromethyl)pyrimidine-2,4-diamine] | 33 nM |  | 917 nM | < 50 nM | 
C[C@H](Nc1nccc(Nc2cc(CC3CC3)[nH]n2)n1)c1ccc2[nH]cnc2c1 [I-45, (S)—N^2-(1-(1H-benzo[d]imidazol-5-yl)ethyl)-N^4-(5-(cyclopropylmethyl)-1H-pyrazol-3-yl)pyrimidine-2,4-diamine] | 41 nM |  | 1200 nM | < 50 nM | 
CN(Cc1ccc2[nH]cnc2c1Cl)c1nccc(Nc2cc(C(F)F)[nH]n2)n1 [II-81, N^2-((4-chloro-1H-benzo[d]imidazol-5-yl)methyl)-N^4-(5-(difluoromethyl)-1H-pyrazol-3-yl)-N^2-methylpyrimidine-2,4-diamine] | 19.7 nM | < 50 nM | 235 nM |  | 
c1cc(CNc2nccc(Nc3cc(C4CC4)[nH]n3)n2)c2nc[nH]c2c1 [I-39, N^2-((1H-benzo[d]imidazol-4-yl)methyl)-N^4-(5-cyclopropyl-1H-pyrazol-3-yl)pyrimidine-2,4-diamine] | 74.7 nM |  | 205 nM | 50 to 250 nM | 
FC(F)(F)c1cc(Nc2cc(C3CC3)[nH]n2)nc(NCc2cccc3[nH]ccc23)n1 [I-41, N^2-((1H-indol-4-yl)methyl)-N^4-(5-cyclopropyl-1H-pyrazol-3-yl)-6-(trifluoromethyl)pyrimidine-2,4-diamine] |  |  |  | 250 to 1000 nM | 
Cc1cc2[nH]cnc2cc1[C@H](C)Nc1nccc(Nc2cc(C3CC3)[nH]n2)n1 [II-31, (S)-N^4-(5-Cyclopropyl-1H-pyrazol-3-yl)-N^2-(1-(6-methyl-1H-benzo[d]imidazol-5-yl)ethyl)pyrimidine-2,4-diamine] |  | 50 to 250 nM |  |  | 
O=C(c1c[nH]c2cccc(CNc3nccc(Nc4cc(C5CC5)[nH]n4)n3)c12)C(F)(F)F [I-37, 1-(4-((4-(5-cyclopropyl-1H-pyrazol-3-ylamino)pyrimidin-2-ylamino)methyl)-1H-indol-3-yl)-2,2,2-trifluoroethanone] |  |  |  | < 50 nM | 
Cc1cc(Nc2ccnc(N[C@@H](C)c3ccc4[nH]cnc4c3)n2)n[nH]1 [I-121, (S)—N^2-(1-(1H-benzo[d]imidazol-5-yl)ethyl)-N^4-(5-methyl-1H-pyrazol-3-yl)pyrimidine-2,4-diamine] |  |  |  | 250 to 1000 nM | 
Cc1cc(Nc2cc(C3CC3)[nH]n2)nc(NCc2cccc3[nH]ccc23)n1 [I-54, N^2-((1H-indol-4-yl)methyl)-N^4-(5-cyclopropyl-1H-pyrazol-3-yl)-6-methylpyrimidine-2,4-diamine] |  |  |  | 50 to 250 nM | 
F[C@@H]1C[C@@H]1c1cc(Nc2ccnc(NCc3cccc4[nH]ccc34)n2)n[nH]1 (racemic) [I-81] |  |  |  | 50 to 250 nM | 
CC(C)c1cc(Nc2ccnc(NCc3cccc4[nH]ccc34)n2)n[nH]1 [I-58, N^2-((1H-indol-4-yl)methyl)-N^4-(5-isopropyl-1H-pyrazol-3-yl)pyrimidine-2,4-diamine] |  |  |  | 50 to 250 nM | 
c1ccc([C@@H]2C[C@H]2c2cc(Nc3ccnc(NCc4cccc5[nH]ccc45)n3)n[nH]2)cc1 (racemic) [I-57, N^2-((1H-indol-4-yl)methyl)-N^4-(5-((trans)-2-phenylcyclopropyl)-1H-pyrazol-3-yl)pyrimidine-2,4-diamine] |  |  |  | 250 to 1000 nM | 
C[C@H](Nc1nccc(Nc2cc(C3CCOC3)[nH]n2)n1)c1ccc2[nH]cnc2c1 (stereo partly drawn) [I-14, N^2—((S)-1-(1H-benzo[d]imidazol-5-yl)ethyl)-N^4-(5-(tetrahydrofuran-3-yl)-1H-pyrazol-3-yl)pyrimidine-2,4-diamine] |  |  |  | < 50 nM | 
Cc1cc(Nc2ccnc(N(C)Cc3ccc4[nH]cnc4c3Cl)n2)n[nH]1 [II-76, N^2-((4-chloro-1H-benzo[d]imidazol-5-yl)methyl)-N^2-methyl-N^4-(5-methyl-1H-pyrazol-3-yl)pyrimidine-2,4-diamine] |  | < 50 nM |  |  | 
C[C@H](Nc1nccc(Nc2cc([C@@H]3C[C@H]3F)[nH]n2)n1)c1ccc2[nH]ccc2c1 [I-72, N^2—((S)-1-(1H-indol-5-yl)ethyl)-N^4-(5-((1S,2R)-2-fluorocyclopropyl)-1H-pyrazol-3-yl)pyrimidine-2,4-diamine] |  |  |  | < 50 nM | 
c1cc(CNc2nccc(Nc3cc(C4CCC4)[nH]n3)n2)c2cc[nH]c2c1 [I-36, N^2-((1H-indol-4-yl)methyl)-N^4-(5-cyclobutyl-1H-pyrazol-3-yl)pyrimidine-2,4-diamine] |  |  |  | < 50 nM | 
Cc1c(CNc2nccc(Nc3cc(C4CC4)[nH]n3)n2)ccc2[nH]cnc12 [I-16, N^4-(5-Cyclopropyl-1H-pyrazol-3-yl)-N^2-((4-methyl-1H-benzo[d]imidazol-5-yl)methyl)pyrimidine-2,4-diamine] |  |  |  | 50 to 250 nM | 

Second part, the compound after the results:

Ki [1, 3] | Ki [1, 4] | IC50 [2] | Ki [1, 5] | Ki ([1]; Ki, Table I, PAK1 Ki class) | SMILES
36 nM | < 50 nM | 188 nM |  |  | Fc1cnc(NCc2cc(Cl)cc3[nH]cnc23)nc1Nc1cc(C2CC2)[nH]n1 [II-23, N^2-((6-Chloro-1H-benzo[d]imidazol-4-yl)methyl)-N^4-(5-cyclopropyl-1H-pyrazol-3-yl)-5-fluoropyrimidine-2,4-diamine]
14.8 nM |  | 1300 nM | < 50 nM |  | Clc1cnc(NCc2ccc3[nH]cnc3c2Cl)nc1Nc1cc(C2CC2)[nH]n1 [I-106, 5-chloro-N^2-((4-chloro-1H-benzo[d]imidazol-5-yl)methyl)-N^4-(5-cyclopropyl-1H-pyrazol-3-yl)pyrimidine-2,4-diamine]
36.8 nM | < 50 nM | 64.1 nM |  |  | COCCN(Cc1cc(F)cc2[nH]ncc12)c1nccc(Nc2cc(C3CC3)[nH]n2)n1 [II-94, N^4-(5-cyclopropyl-1H-pyrazol-3-yl)-N^2-((6-fluoro-1H-indazol-4-yl)methyl)-N^2-(2-methoxyethyl)pyrimidine-2,4-diamine]
41.7 nM | < 50 nM | 1700 nM |  |  | CN(Cc1ccc2[nH]cnc2c1)c1nc(Nc2cc(C3CC3)[nH]n2)cc(C(C)(C)O)n1 [II-97, 2-[2-[(1H-Benzoimidazol-5-ylmethyl)-methyl-amino]-6-(5-cyclopropyl-1H-pyrazol-3-ylamino)-pyrimidin-4-yl]-propan-2-ol]
13.6 nM | < 50 nM | 189 nM |  |  | COc1cc(CNc2nccc(Nc3cc(C4CC4)[nH]n3)n2)c2cn[nH]c2c1 [II-74, N^4-(5-cyclopropyl-1H-pyrazol-3-yl)-N^2-((6-methoxy-1H-indazol-4-yl)methyl)pyrimidine-2,4-diamine]
 | < 50 nM |  |  |  | OCCN(Cc1cccc2[nH]ncc12)c1nccc(Nc2cc(C3CC3)[nH]n2)n1 [II-77, 2-(((1H-indazol-4-yl)methyl)(4-((5-cyclopropyl-1H-pyrazol-3-yl)amino)pyrimidin-2-yl)amino)ethanol]
 | < 50 nM |  |  |  | OCCN(Cc1cc(F)cc2[nH]ncc12)c1nccc(Nc2cc(C3CC3)[nH]n2)n1 [II-66, 2-((4-((5-cyclopropyl-1H-pyrazol-3-yl)amino)pyrimidin-2-yl)((6-fluoro-1H-indazol-4-yl)methyl)anino)ethanol]
 | 250 to 1000 nM |  |  |  | CCc1cc(Nc2nc(N(C)Cc3ccc4[nH]cnc4c3Cl)ncc2F)n[nH]1 [II-69, N^2-((4-chloro-1H-benzo[d]imidazol-5-yl)methyl)-N^4-(5-ethyl-1H-pyrazol-3-yl)-5-fluoro-N^2-methylpyrimidine-2,4-diamine]
 |  |  | < 50 nM |  | Fc1cnc(NCc2ccc3[nH]cnc3c2Cl)nc1Nc1cc(C2CC2)[nH]n1 [I-117, N^2-((4-chloro-1H-benzo[d]imidazol-5-yl)methyl)-N^4-(5-cyclopropyl-1H-pyrazol-3-yl)-5-fluoropyrimidine-2,4-diamine]
 | < 50 nM |  |  |  | Cc1cc2c(CNc3nccc(Nc4cc(C5CC5)[nH]n4)n3)cccc2[nH]1 [II-15, N^4-(5-Cyclopropyl-1H-pyrazol-3-yl)-N^2-((2-methyl-1H-indol-4-yl)methyl)pyrimidine-2,4-diamine]
 | < 50 nM |  |  |  | CCN(Cc1cc(F)cc2[nH]ncc12)c1ncc(F)c(Nc2cc(C3CC3)[nH]n2)n1 [II-85, N^4-(5-cyclopropyl-1H-pyrazol-3-yl)-N^2-ethyl-5-fluoro-N^2-((6-fluoro-1H-indazol-4-yl)methyl)pyrimidine-2,4-diamine]
 | < 50 nM |  |  |  | CN(C)CCN(Cc1cc(F)cc2[nH]ncc12)c1nccc(Nc2cc(C3CC3)[nH]n2)n1 [II-110, N^4-(5-cyclopropyl-1H-pyrazol-3-yl)-N^2-(2-(dimethylamino)ethyl)-N^2-((6-fluoro-1H-indazol-4-yl)methyl)pyrimidine-2,4-diamine]
